Read-outs that look alike come from different tables or passages of the source.
Tests used:
SW620 cells = experiment: SRB cell viability (cytotoxicity), SW620; format: cell-based, human; conditions: for Selectivity Index SI3: CHO-K1/SW620 IC50 ratio; for Selectivity Index SI4: HaCaT/SW620 IC50 ratio; for IC50: Homo sapiens, SW-620, SRB, read-out: IC50 ± SEM SW620
Description: (§1) Human colon cancer cell lines (SW480 and SW620), together with nonmalignant cells (CHO-K1 and HaCaT) were used to study the biological activity. Cells were purchased from the European Collection of Authenticated Cell Cultures (ECACC, UK). Dulbecco’s Modified Eagle Medium (DMEM) containing heat-inactivated (56 °C) horse serum (10%), non-essential amino acids (1%) and antibiotics (penicillin/streptomycin, 1%) (Gibco Invitrogen, Carlsbad, CA, USA) was used to maintain the cells, reducing the horse serum to 3%, and, adding insulin ([…]), transferrin ([…]) and selenium (5 ng/mL) (ITS-defined medium; Gibco, Invitrogen, Carlsbad, CA, USA) for all the experiments.
(§2) The colorimetric test with Sulforhodamine B (SRB) was used to evaluate cell viability. Cell density was adjusted to seed 20.000 cells/well in 96-well tissue culture plates. Cells were first incubated for 24 h and then treated with the synthesized hybrids, the lead compounds (PIH and resveratrol), and the reference drug (5-FU) (concentrations between 0.01 and 200 µM), using DMSO (below 1%) as vehicle control. The optimum conditions were 37 °C and 5% CO2. After the end of each treatment, cold trichloroacetic acid (MERCK, 50% v/v) was added and preserved for one hour at 4 °C, to fix the cells. Then, cell proteins were stained with 0.4% (w/v) SRB (Sigma-Aldrich, St. Louis, MO, USA), and subsequently washed with acetic acid (1%) to remove unbound SRB. After air-drying, protein-bound SRB was solubilized in 10 mM Tris-base before reading the absorbance at 492 nm in a microplate reader (Mindray MR-96A). All experiments were performed at least three times.

HaCaT cells = experiment: SRB cell viability (cytotoxicity), HaCaT; format: cell-based; conditions: Homo sapiens, HaCaT nonmalignant cells, read-out: IC50 ± SEM HACAT
Description: as §1, §2

HCT 116 cell line = conditions: read-out: IC50 antiproliferative activity; cited from earlier work
SW480 cells = experiment: SRB cell viability (cytotoxicity), SW480; format: cell-based, human; conditions: for Selectivity Index SI1: CHO-K1/SW480 IC50 ratio; for Selectivity Index SI2: HaCaT/SW480 IC50 ratio; for IC50: Homo sapiens, SW480, SRB, read-out: IC50 ± SEM SW480
Description: as §1, §2

CHO-K1 cells = experiment: SRB cell viability (cytotoxicity), CHO-K1; format: cell-based; conditions: Cricetulus griseus, CHO-K1 nonmalignant cells, read-out: IC50 ± SEM CHO
Description: as §1, §2

Structure (SMILES): O=c1[nH]cc(F)c(=O)[nH]1 [5-FU, 5-fluorouracil, reference compound]
- Selectivity Index SI3 (SW620 cells; 24 H): 0.59
- Selectivity Index SI3 (SW620 cells; 48 H): 0.96
- Selectivity Index SI4 (SW620 cells; 48 H): 0.66
- IC50 (HaCaT cells; 24 H): > 1000 µM
- IC50 (HCT 116 cell line): 5 µM
- Selectivity Index SI1 (SW480 cells; 24 H): 0.35
- Selectivity Index SI1 (SW480 cells; 48 H): 0.99
- Selectivity Index SI2 (SW480 cells; 48 H): 0.68

Structure (SMILES): COc1cccc(C(=O)N/N=C/c2c(O)cc(O)cc2/C=C/c2ccc(O)cc2)c1 [6a, N′-((E)-2,4-dihydroxy-6-((E)-4-hydroxystyryl)benzylidene)-3-methoxybenzohydrazide]
- Selectivity Index SI3 (SW620 cells; 24 H): 0.16
- Selectivity Index SI4 (SW620 cells; 24 H): 0.28
- Selectivity Index SI3 (SW620 cells; 48 H): 0.31
- Selectivity Index SI4 (SW620 cells; 48 H): 0.05
- IC50 (SW620 cells; 24 H): 172 ± 9 µM
- IC50 (SW620 cells; 48 H): 41.5 ± 1.2 µM
- IC50 (HaCaT cells; 24 H): 47.5 ± 1.15 µM
- IC50 (HaCaT cells; 48 H): 2.2 ± 0.2 µM
- melting point: 248 to 250 °C
- IC50 (CHO-K1 cells; 24 H): 28.4 ± 1.48 µM
- IC50 (CHO-K1 cells; 48 H): 13 ± 1.3 µM
- Selectivity Index SI1 (SW480 cells; 24 H): 0.86
- Selectivity Index SI2 (SW480 cells; 24 H): 1.44
- Selectivity Index SI1 (SW480 cells; 48 H): 0.52
- Selectivity Index SI2 (SW480 cells; 48 H): 0.09
- IC50 (SW480 cells; 24 H): 33 ± 2.13 µM
- IC50 (SW480 cells; 48 H): 24.9 ± 2.8 µM

Structure (SMILES): COc1ccc(C(=O)N/N=C/c2c(O)cc(O)cc2/C=C/c2ccc(O)cc2)cc1 [6b, N′-((E)-2,4-dihydroxy-6-((E)-4-hydroxystyryl)benzylidene)-4-methoxybenzohydrazide]
- IC50 (SW620 cells; 24 H): 160 ± 9.4 µM
- IC50 (SW620 cells; 48 H): 37.6 ± 2.9 µM
- IC50 (HaCaT cells; 24 H): 36.9 ± 3.53 µM
- IC50 (HaCaT cells; 48 H): 13.9 ± 0.7 µM
- IC50 (CHO-K1 cells; 24 H): 23.4 ± 1.83 µM
- IC50 (CHO-K1 cells; 48 H): 14.4 ± 1.7 µM
- IC50 (SW480 cells; 24 H): 36.1 ± 1.97 µM
- IC50 (SW480 cells; 48 H): 11.3 ± 2.3 µM

Structure (SMILES): O=C(N/N=C/c1c(O)cc(O)cc1/C=C/c1ccc(O)cc1)c1ccc(F)cc1 [6c, N′-((E)-2,4-dihydroxy-6-((E)-4-hydroxystyryl)benzylidene)-4-fluorobenzohydrazide]
- Selectivity Index SI3 (SW620 cells; 24 H): 0.39
- Selectivity Index SI4 (SW620 cells; 24 H): 0.57
- Selectivity Index SI3 (SW620 cells; 48 H): 0.96
- IC50 (SW620 cells; 24 H): 57.7 ± 3.6 µM
- IC50 (SW620 cells; 48 H): 12.5 ± 1 µM
- IC50 (HaCaT cells; 24 H): 32.8 ± 1.33 µM
- IC50 (HaCaT cells; 48 H): 14.6 ± 0.8 µM
- IC50 (CHO-K1 cells; 24 H): 22.6 ± 2.38 µM
- IC50 (CHO-K1 cells; 48 H): 12 ± 1.6 µM
- Selectivity Index SI1 (SW480 cells; 24 H): 0.77
- Selectivity Index SI2 (SW480 cells; 24 H): 1.12
- Selectivity Index SI1 (SW480 cells; 48 H): 1.11
- Selectivity Index SI2 (SW480 cells; 48 H): 1.35
- IC50 (SW480 cells; 24 H): 29.2 ± 3.55 µM
- IC50 (SW480 cells; 48 H): 10.8 ± 2 µM

Structure (SMILES): COc1cccc(C(=O)N/N=C/c2c(O)cc(O)cc2/C=C/c2ccc(O)cc2)c1OC [6d, N′-((E)-2,4-dihydroxy-6-((E)-4-hydroxystyryl)benzylidene)-2,3-dimethoxybenzohydrazide]
- IC50 (SW620 cells; 24 H): 171 ± 8.7 µM
- IC50 (SW620 cells; 48 H): 49.9 ± 2.1 µM
- IC50 (HaCaT cells; 24 H): 49.7 ± 1.96 µM
- IC50 (HaCaT cells; 48 H): 2.95 ± 0.2 µM
- IC50 (CHO-K1 cells; 24 H): 35.5 ± 2.36 µM
- IC50 (CHO-K1 cells; 48 H): 22.4 ± 2.7 µM
- IC50 (SW480 cells; 24 H): 34.8 ± 3.31 µM
- IC50 (SW480 cells; 48 H): 20.5 ± 1.9 µM

Structure (SMILES): COc1ccc(OC)c(C(=O)N/N=C/c2c(O)cc(O)cc2/C=C/c2ccc(O)cc2)c1 [6f, N′-((E)-2,4-dihydroxy-6-((E)-4-hydroxystyryl)benzylidene)-2,5-dimethoxybenzohydrazide]
- Selectivity Index SI3 (SW620 cells; 24 H): 0.11
- Selectivity Index SI4 (SW620 cells; 24 H): 0.21
- Selectivity Index SI3 (SW620 cells; 48 H): 0.16
- Selectivity Index SI4 (SW620 cells; 48 H): 0.15
- IC50 (SW620 cells; 24 H): > 200 µM
- IC50 (SW620 cells; 48 H): 99.4 ± 6.9 µM
- IC50 (HaCaT cells; 24 H): 42.2 ± 5.9 µM
- IC50 (HaCaT cells; 48 H): 14.9 ± 1.3 µM
- melting point: 260 to 262 °C
- IC50 (CHO-K1 cells; 24 H): 22.7 ± 2.25 µM
- IC50 (CHO-K1 cells; 48 H): 15.9 ± 1.6 µM
- Selectivity Index SI1 (SW480 cells; 24 H): 0.97
- Selectivity Index SI2 (SW480 cells; 24 H): 1.80
- Selectivity Index SI1 (SW480 cells; 48 H): 1.30
- Selectivity Index SI2 (SW480 cells; 48 H): 1.22
- IC50 (SW480 cells; 24 H): 23.4 ± 1.31 µM
- IC50 (SW480 cells; 48 H): 12.2 ± 1.2 µM

Structure (SMILES): COc1ccc(C(=O)N/N=C/c2c(O)cc(O)cc2/C=C/c2ccc(O)cc2)cc1OC [6g, N′-((E)-2,4-dihydroxy-6-((E)-4-hydroxystyryl)benzylidene)-3,4-dimethoxybenzohydrazide]
- IC50 (SW620 cells; 24 H): 191 ± 13 µM
- IC50 (SW620 cells; 48 H): 40.3 ± 2.7 µM
- IC50 (HaCaT cells; 24 H): 63.7 ± 5.27 µM
- IC50 (HaCaT cells; 48 H): 17.7 ± 0.5 µM
- IC50 (CHO-K1 cells; 24 H): 33.2 ± 1.99 µM
- IC50 (CHO-K1 cells; 48 H): 17.2 ± 2 µM
- IC50 (SW480 cells; 24 H): 37 ± 2.24 µM
- IC50 (SW480 cells; 48 H): 20.2 ± 2.7 µM

Structure (SMILES): COc1cc(OC)cc(C(=O)N/N=C/c2c(O)cc(O)cc2/C=C/c2ccc(O)cc2)c1 [6h, N′-((E)-2,4-dihydroxy-6-((E)-4-hydroxystyryl)benzylidene)-3,5-dimethoxybenzohydrazide]
- IC50 (SW620 cells; 24 H): 126 ± 20.9 µM
- IC50 (SW620 cells; 48 H): 26 ± 3.2 µM
- IC50 (HaCaT cells; 24 H): 43.2 ± 4.02 µM
- IC50 (HaCaT cells; 48 H): 4.5 ± 0.6 µM
- IC50 (CHO-K1 cells; 24 H): 22.8 ± 1.31 µM
- IC50 (CHO-K1 cells; 48 H): 14 ± 1.2 µM
- IC50 (SW480 cells; 24 H): 29.1 ± 1.31 µM
- IC50 (SW480 cells; 48 H): 7.2 ± 2 µM

Structure (SMILES): O=C(N/N=C/c1ccccc1OCc1ccccc1)c1ccncc1 [C]
- IC50 (HCT 116 cell line): 3.1 µM

Structure (SMILES): O=C(N/N=C/c1c(O)ccc2ccccc12)c1ccncc1 [D]
- IC50 (HCT 116 cell line): 0.29 µM

Structure (SMILES): Cc1ncc(CO)c(/C=N/NC(=O)c2ccncc2)c1O [PIH, pyridoxal isonicotinoyl hydrazone, reference compound]
- Selectivity Index SI3 (SW620 cells; 24 H): 1.53
- Selectivity Index SI4 (SW620 cells; 24 H): 1.19
- Selectivity Index SI3 (SW620 cells; 48 H): 0.63
- Selectivity Index SI4 (SW620 cells; 48 H): 0.85
- IC50 (SW620 cells; 24 H): > 200 µM
- IC50 (SW620 cells; 48 H): 119 ± 7 µM
- IC50 (HaCaT cells; 24 H): > 200 µM
- IC50 (HaCaT cells; 48 H): 101 ± 10.8 µM
- IC50 (CHO-K1 cells; 24 H): > 200 µM
- IC50 (CHO-K1 cells; 48 H): 75.3 ± 6.4 µM
- Selectivity Index SI1 (SW480 cells; 24 H): 1.10
- Selectivity Index SI2 (SW480 cells; 24 H): 0.86
- Selectivity Index SI1 (SW480 cells; 48 H): 0.67
- Selectivity Index SI2 (SW480 cells; 48 H): 0.90
- IC50 (SW480 cells; 24 H): > 200 µM
- IC50 (SW480 cells; 48 H): 112 ± 5.9 µM

Structure (SMILES): Oc1ccc(/C=C/c2cc(O)cc(O)c2)cc1 [RESV, resveratrol]
- Selectivity Index SI3 (SW620 cells; 24 H): 0.22
- Selectivity Index SI4 (SW620 cells; 24 H): 0.42
- Selectivity Index SI3 (SW620 cells; 48 H): 0.45
- Selectivity Index SI4 (SW620 cells; 48 H): 0.14
- IC50 (SW620 cells; 24 H): > 200 µM
- IC50 (HaCaT cells; 24 H): > 200 µM
- IC50 (HaCaT cells; 48 H): 20.2 ± 2.7 µM
- IC50 (CHO-K1 cells; 48 H): 64 ± 8.9 µM
- Selectivity Index SI1 (SW480 cells; 24 H): 0.77
- Selectivity Index SI2 (SW480 cells; 24 H): 1.49
- Selectivity Index SI1 (SW480 cells; 48 H): 0.52
- Selectivity Index SI2 (SW480 cells; 48 H): 0.16

Structure (SMILES): NC(=S)N/N=C/c1c(O)cc(O)cc1/C=C/c1ccc(O)cc1 [compound 8, 2-((E)-2,4-dihydroxy-6-((E)-4-hydroxystyryl)benzylidene)hydrazine-1-carbothioamide]
- Selectivity Index SI3 (SW620 cells; 24 H): 0.41
- Selectivity Index SI4 (SW620 cells; 24 H): 0.59
- Selectivity Index SI3 (SW620 cells; 48 H): 0.57
- Selectivity Index SI4 (SW620 cells; 48 H): 0.50
- IC50 (SW620 cells; 24 H): 102 ± 3.5 µM
- IC50 (SW620 cells; 48 H): 64.1 ± 2.9 µM
- IC50 (HaCaT cells; 24 H): 60.1 ± 3.99 µM
- IC50 (HaCaT cells; 48 H): 31.8 ± 1.4 µM
- melting point: 242 to 244 °C
- IC50 (CHO-K1 cells; 24 H): 41.9 ± 2.83 µM
- IC50 (CHO-K1 cells; 48 H): 36.7 ± 3.8 µM
- Selectivity Index SI1 (SW480 cells; 24 H): 1.02
- Selectivity Index SI2 (SW480 cells; 24 H): 1.47
- Selectivity Index SI1 (SW480 cells; 48 H): 0.89
- Selectivity Index SI2 (SW480 cells; 48 H): 0.77
- IC50 (SW480 cells; 24 H): 41 ± 3.93 µM
- IC50 (SW480 cells; 48 H): 41.2 ± 2.3 µM
